This is an account of results in patent publication US5605911A, “Use of alpha-2 adrenergic drugs to prevent adverse effects of NMDA receptor hypofunction (NRH)” (priority 1995, dated 1997).

“Also recorded” adds a separate entry of the source. Like-named read-outs stand apart in the source and are kept apart here. Where only a bound is given, the exact number is not on record here.

The test system of data set [1] is KA and/or QUIS/AMPA classes of EAA receptors. Put plainly: blocking of MK-801 neurotoxic side effects by non-NMDA antagonist drugs in vivo. The settings on record: adult rats. The text has this: In addition to the foregoing classes of drugs, the Applicants have also recently discovered that non-NMDA antagonist drugs which can penetrate the BBB and block the KA and/or QUIS/AMPA classes of EAA receptors.

The subject of the next data set is cerebral cortex. Particulars: adult rat, literature; cited from earlier work.
The test system of a further data set is NMDA receptor. Particulars: humans, literature; cited from earlier work.
The subject of a further data set is PC/RS cortical neurons. Put plainly: protection by anti-psychotic drugs against MK-801 (NRH)-induced vacuoles in rats. The data set is classed as in vivo. Particulars: ip; for protection against vacuoles (activity in words): MK-801-treated rats. How it is done:
Control animals received saline or DMSO, but no anti-psychotic drugs. Test animals were injected ip with an antipsychotic drug, listed above and in Table 2. Vacuoles were counted and data were processed as described in Example 1.

The nature of data set [2]: penetration of sulpiride into the CNS. It is filed as in vivo. Particulars: in words.
For data set [3] the following is noted: Sershen 1994; cited from earlier work.
The test system of another data set is α2 receptors. Particulars: in words; cited from earlier work.
The conditions of data set [4]: compared to clonidine, cited from earlier work.
Data set [5] has as its system people addicted to cigarettes or opiates. The settings on record: cited from earlier work.

In the case of `NS(=O)(=O)c1cccc2c1c([N+](=O)[O-])cc1nc(O)c(O)nc12` [NBQX, 2,3-dihydroxy-6-nitro-7-sulfamoylbenzo(F)quinoxaline], the “block of neurotoxic side effects of NMDA antagonist drugs such as MK-801” value in [1] is given as “can also block the neurotoxic side effects of NMDA antagonist drugs such as MK-801”.
On to `c1ccc(C2(N3CCCCC3)CCCCC2)cc1` [Phencyclidine], for which, in the data set with cerebral cortex, the “pathomorphological changes in brain” value is listed as “produce pathomorphological changes in various corticolimbic regions of the adult rat brain”. Also, the psychotomimetic reactions entry in the data set on NMDA receptor is given as “can induce a psychosis which is clinically indistinguishable from schizophrenia”.
On to `CCN1CCCC1CNC(=O)c1cc(S(N)(=O)=O)ccc1OC` (stereo not drawn) [Sulpiride], for which the ED50 in the data set on PC/RS cortical neurons (Rattus norvegicus, Cortical neurone) is more than 200 mg/kg. The “protection against vacuoles (activity in words)” value in the data set on PC/RS cortical neurons was “Inactive”; with PC/RS cortical neurons (listed as sulpiride), “inactive”. Moreover, the “time to penetrate into the CNS” value in [2] is listed as “several hours”.
Turning to `CC[C@H]1C[C@H]2C[C@H]3c4[nH]c5ccc(OC)cc5c4CCN(C2)[C@@H]13` [ibogaine], in data set [3], the craving for cocaine entry was “can suppress the craving for cocaine”.
Take `CC(Oc1c(Cl)cccc1Cl)C1=NCCN1` (stereo not drawn) [lofexidine]: the “affinity/selectivity for α2 over α1 receptors” value with α2 receptors is listed as “activate α2 receptors with higher affinity than they have for α1 receptors”. The hypotensive side effects result in data set [4] is on record as “substantially lower hypotensive side effects than clonidine; also recorded: substantially lower activity in reducing blood pressure than clonidine”; in [4] (listed as Lofexidine), “reduced hypotensive side effects compared to clonidine”. Moreover, the “reduction of withdrawal symptoms” value in data set [5] is “help reduce withdrawal symptoms in some recovering addicts”.
